One series deals with CDK2/CyclinE1 (Homo sapiens (Human), UniProt P24941). The experiment in a line: Kinase inhibitory activity on CDK2/CyclinE1. The format is biochemical. The procedure: 1.2 Experimental Preparation • 1.2.1 Preparation of Kinase Reaction Buffer I: The 5×Reaction Buffer A (Promega; V307A-C) provided in the kit was mixed and diluted with MILLI-Q® H2O and 0.1 M DTT (dithiothreitol) to give 4× kinase buffer, and then MILLI-Q® H2O was further added to finally formulate the solution into 1× Kinase buffer.
1 μl of 10 mM standard substance stock solution was taken and added to 9 μl of kinase reaction buffer I and mixed well; then 90 μl of kinase reaction buffer I was added and mixed well; then 100 μl of kinase reaction buffer I was added and mixed well. The final concentration was 50 μM. • b. 40 μl of kinase reaction buffer II was added into B2 to B10 of a 96-well plate, and 50 μl of the above solution was added into B1; • c. 10 μl of solution was taken from well B1, added into B2, and mixed well; then 10 μl of the resulting solution was taken and added into B3, and dilution was carried out in sequence to B9, so as to obtain control solutions that are diluted by 5-fold sequentially. • (2) Preparation of test compound solution: • a. […]
The inhibition rate of each compound at each concentration point was calculated by the formula as follows and curve fitting was performed by GraphPad Prism 5 software to obtain the IC50 value.

The target in another series is CDK1/CyclinA2 (Homo sapiens (Human), UniProt P06493). The series can be described thus: CDK kinase inhibitory activity, ADP-Glo Kinase Assay, CDK1/CyclinA2. The format is biochemical. For orientation: In ADP-Glo the light output rises with the ADP produced.
Series [1] in a line: Pharmacokinetic determination in mouse (LC/MS/MS of plasma). The series is classed as in vivo, ICR mice. As to conditions: for AUC(0-t): read-out: Area under curve AUC0-t; for AUC(0-inf): read-out: Area under curve AUC0-∞; for half-life: read-out: Half life T1/2 (converted); for MRT: read-out: Retention time MRT. The procedure:
Pharmacokinetic Determination of Representative Compounds of this Disclosure in Mouse
The ICR mice were used as the test animals, and the concentrations of the drugs in the plasma of mice at different time points after intragastric administration and intravenous administration of the representative compound of the present disclosure were determined by LC/MS/MS, so as to study the pharmacokinetic behavior of the compounds of the disclosure in mice and evaluate the pharmacokinetic characteristics thereof.
An appropriate amount of sample was weighed, and added with 0.1% hydroxyethyl cellulose/0.5% TWEEN®80 to a final volume to give 0.5 mg/ml solution for intragastric administration.
Whole blood was anticoagulated with EDTA-K2 and centrifuged, the supernatant was removed, and the residue was frozen at −20° C. until sample analysis. […] The plasma samples were treated in the same manner as that employed for plasma samples of the intragastrically administered group. Plasma samples were analyzed by LC-MS/MS, sample pretreatment was performed using protein precipitation method, the linear range of sample analysis was 1-2000 ng/ml, and the lowest quantification limit was 1 ng/ml.

Series [2] in a line: Rat pharmacokinetic determination (LC/MS/MS of plasma). The series is classed as in vivo, SD rats. As to conditions: for bioavailability: oral, intragastric 5 mg/kg vs intravenous 2 mg/kg; for AUC(0-inf): read-out: Area under curve AUC0-∞; for AUC(0-t): read-out: Area under curve AUC0-t; for Vd: read-out: Apparent volume of distribution VZ; for clearance: read-out: Clearance rate Cl; for MRT: read-out: Retention time MRT; for half-life: read-out: Half life T1/2 (converted). The procedure:
Rat Pharmacokinetic Determination of Representative Compounds of the Present Disclosure
SD rats were used as the test animals, and the concentrations of the drugs in the plasma of rats at different time points after the intravenous administration and intragastric administration of the representative compounds were determined by LC/MS/MS, so as to study the pharmacokinetic behavior of the compounds of the disclosure in rats and evaluate the pharmacokinetic characteristics thereof.
Intragastric administration: An appropriate amount of sample was weighed, and added with 0.1% hydroxyethyl cellulose/0.5% TWEEN®80 to a final volume to give 1 mg/ml solution.
Whole blood was anticoagulated with EDTA-K2 and centrifuged, the supernatant was removed, and the residue was frozen at −20° C. until sample analysis. Plasma samples were analyzed by LC-MS/MS, sample pretreatment was performed using a protein precipitation method, the linear range of sample analysis was 1-2000 ng/ml, and the lowest quantification limit was 1 ng/ml.

Where [3] appears, read: male, ICR, mouse, plasma, po, mice, single intragastric administration, 5 mg/kg, Mean ± SD.
The mark [4] stands for this setting: male, ICR, mouse, plasma, mice, single intravenous administration, 2 mg/kg, Mean ± SD.
Where [5] appears, read: male, SD, rat, plasma, po, rats, single intragastric administration, 5 mg/kg.
The mark [6] stands for this setting: male, rat, plasma, po, rats, single intragastric administration, 5 mg/kg, Mean ± SD.
Where [7] appears, read: male, rat, plasma, rats, single intravenous administration, 2 mg/kg, Mean ± SD.

SMILES strings stand for the structures.

As usually defined, the IC50 is the concentration that inhibits the measured activity by half. Read a high IC50 as weaker potency in that assay. Consider `CCN1CCC(c2ccc(Nc3ncc(F)c(-c4cc(F)c5c(c4)C4(CCCC4)C(C)=N5)n3)nc2)CC1` [Example 12, N-(5-(1-ethylpiperidin-4-yl)pyridin-2-yl)-5-fluoro-4-(7′-fluoro-2′-methylspiro [cyclopentane-1,3′-indol]-5′-yl)pyrimidine-2-amino], for which the half-inhibitory concentration (IC50) against CDK2/CyclinE1 was determined as 0.394 µM; against CDK1/CyclinA2, 1.07 µM.
In general, clearance refers to the rate of elimination divided by the concentration. One may read the MRT as the average time that molecules of a dose stay in the body. With `CCN1CCN(Cc2ccc(Nc3ncc(F)c(-c4cc(F)c5nc(C)n(C(C)C)c5c4)n3)nc2)CC1` [LY2835219, reference compound], the AUC(0-t) in series [1] (setting [3]) is 756 ± 34 ng·h/mL; in series [1] (setting [4]), 674 ± 82.1 ng·h/mL; in series [2] (setting [6]) it was 3280 ± 731 ng·h/mL; in series [2] (setting [7]), 1500 ± 337 ng·h/mL. The AUC(0-inf) in series [1] (setting [3]) is 765 ± 34 ng·h/mL; in series [1] (setting [4]), 679 ± 81 ng·h/mL; in series [2] (setting [5]) it was 3440 ng·h/mL. The clearance stood at 49.6 ± 5.72 mL/min/kg in series [1] (male, ICR, mouse, plasma, mice, single intravenous administration, 2 mg/kg, Mean ± SD, read-out: Clearance rate Cl) and 22.4 ± 4.49 mL/min/kg in series [2] (setting [7]). In addition, the bioavailability in series [2] (male, SD, rat, plasma, rats) came out at 87.4%. Also, the Vd in series [2] (setting [7]) turned out to be 6.95 ± 2.43 L/kg. Besides, the MRT in series [2] (setting [7]) is 3.82 ± 1.44 h.
As for `CC1=Nc2c(F)cc(-c3nc(Nc4ccc(C5CCN(C)CC5)cn4)ncc3F)cc2C12CCCC2` [Example 17, 5-Fluoro-4-(7′-fluoro-2′-methylspiro[cyclopentane-1,3′-indol]-5′-yl)-N-(5-(1-methylpiperidin-4-yl)pyridin-2-yl)pyrimidine-2-amino], the bioavailability in series [1] (male, ICR, mouse, plasma, oral, mice, intragastric 5 mg/kg vs intravenous 2 mg/kg) was 75.1%; in series [2] (male, SD, rat, plasma, rats) it was 102%. Moreover, the AUC(0-t) turned out to be 2130 ± 96.9 ng·h/mL in series [1] (setting [3]), 1140 ± 77.8 ng·h/mL in series [1] (setting [4]), 2610 ± 1220 ng·h/mL in series [2] (setting [6]) and 1020 ± 239 ng·h/mL in series [2] (setting [7]). In addition, the AUC(0-inf) in series [1] (setting [3]) amounted to 2500 ± 387 ng·h/mL; in series [1] (setting [4]), 1327 ± 4 ng·h/mL; in series [2] (setting [5]), 5260 ng·h/mL; in series [2] (setting [7]), 1220 ± 456 ng·h/mL. The Cmax was found to be 134 ± 11.8 ng/mL in series [1] (male, ICR, mouse, plasma, po, mice, single intragastric administration, 5 mg/kg, Mean ± SD, read-out: Blood concentration Cmax) and 188 ± 75 ng/mL in series [2] (male, rat, plasma, po, rats, single intragastric administration, 5 mg/kg, Mean ± SD, read-out: Blood concentration Cmax). Further, the half-life in series [1] (setting [3]) was 8.38 ± 3.16 h; in series [1] (setting [4]) it was 9.1 ± 0.26 h; in series [2] (setting [5]), 2 h; in series [2] (setting [7]) it was 8.67 ± 4.98 h. The MRT in series [1] (setting [3]) was 9.45 ± 1.05 h; in series [1] (setting [4]), 7.51 ± 0.28 h; in series [2] (setting [6]) it was 10.2 ± 0.27 h; in series [2] (setting [7]), 7.78 ± 1.3 h. The Vd in series [1] (male, ICR, mouse, plasma, mice, single intravenous administration, 2 mg/kg, Mean ± SD, read-out: Apparent volume of distribution VZ) is 19.8 ± 0.81 L/kg; in series [2] (setting [7]), 19.4 ± 5.89 L/kg. Moreover, in series [1] (mice, single intravenous administration, 2 mg/kg, Mean ± SD), the “Clearance rate Cl” value is 25.2 ± 1.72 mL/min/kg. Further, the “Bioavailability and half-life in mice, in words” value in series [1] (relative to LY2835219) was “higher bioavailability and longer half-life”. Moreover, the values for the IC50 against CDK2/CyclinE1 and against CDK1/CyclinA2 were 2.32 µM and 2.71 µM, respectively. The clearance in series [2] (setting [7]) was found to be 30 ± 11.1 mL/min/kg. Moreover, in series [2] (relative to LY2835219), the “Bioavailability in rats, in words” value is “higher bioavailability”.

The values are drawn from patent US11091476B2, “Protein kinase inhibitors, preparation method and medical use thereof” (Gan & Lee Pharmaceuticals, priority 2015, dated 2021).
